This note sets out measurements from patent US20130116185A1, “PHOSPHATIDYLINOSITOL 3-KINASES ACTIVITY REGULATOR INCLUDING THE FIFTH ZINC FINGER DOMAIN OF FOG2” (SNU R&DB FOUNDATION, priority 2010, published 2013).

Entries after “also recorded” stand apart in the source; their conditions may differ.

One test has as its system Akt. Put plainly: Akt phosphorylation by Western blot in Hep3B cells treated with peptide and IGF-1. In kind it is cell-based. Conditions: 4 μM peptide 2 days, serum-free 24 hr, IGF-1 30 min, FIG. 2D. On the procedure:
To test whether the Akt activity induced by IGF-1 treatment is inhibited by the synthesized peptides, Hep3B cells were incubated with IGF-1 and ZF-5-wt-24 […] and the expressions of Akt and pAkt were analyzed.
Hep3B cells were incubated with 4 μM ZF-5-wt-24 for 2 days and then further incubated in a serum-free media for 24 hr. Afterwards, the cells were incubated with IGF-1 for 30 min and subject to the Western blot analysis. Mock (DMSO) was used as a control.
For orientation: In western blotting, separated proteins are transferred to a membrane and probed.

For test [1], the system named is MDA MB 231 cells. Put plainly: Apoptosis by FACS analysis (propidium iodide) in MDA MB 231 cells. In kind it is cell-based. As to conditions: synthesized peptides, FIG. 7C. The protocol:
PI3K inactivation has been reported to cause cancer cell apoptosis, and FOG2 is known to inhibit the PI3K activity. To test whether PI3K inactivation by overexpressing FOG2 induces apoptosis, MDA MB 231 cells overexpressed FOG2 were analyzed with FACS.
MDA MB 231 cells were incubated with Full-FOG2[1-1151], FOG2[1-412], FOG2[413-789] or FOG2[802-1151]. The cells (5×10^4) were seeded in a 12-well plate and transfected with 1 μg of Full-FOG2[1-1151], FOG2[1-412], FOG2[413-789] or FOG2[802-1151] using Lipofectamine 2000. The cells were incubated at 37° C. for 2 days and subject to FACS analysis.
The cells were incubated with FOG2 fragments and fixed with 70% ethanol for 16 hr. The fixed cells were stained using RNase (5 mg/ml) and propidium iodide ([…]). The amount of DNA in stained cells was analyzed with Cell Quest program of FACS caliber (Becton Dickinson).
Background: A flow cytometer gives signals particle by particle.

In test [2] the test system is MDA MB 231 cells. Put plainly: Cell proliferation MTT assay. In kind it is cell-based. The protocol: Because the PI3K activation is critical in cell growth, the cell proliferation was analyzed to investigate the inhibitory effect of the FOG2 zinc finger domain using the MTT assay.
MDA MB 231 cells were seeded in a 96-well plate, and transfected with 100 ng DNA of pCKflag, FOG2-wt, FOG2-ZF-5-m or FOG2-ZF-6-m using Lipofectamine 2000. On 3 days post-transfection, the MTT assay was performed.
MDA MB 231 cells (2×10^3 cells) were seeded in a 96-well plate and treated with 4 μM each peptide for 3 days. After the treatment, 50 μl of MTT solution (2 mg/ml) was added to each well, incubated at 37° C. for 1 hr. Then, 150 μl of DMSO was added to each well and the absorbance value of each well was measured at 590 nm using a microplate reader.
Background: Formazan colour is commonly taken as a measure of viable cells.

The subject of another test is HCT116 cells. Put plainly: Colony formation assay in 0.3% agar. In kind it is cell-based. As to conditions: synthesized peptide, one week, colonies over 1 mm counted, FIG. 3C. The protocol: HCT116 cells (1×10^3) were trypsinized and seeded in triplicate in a six-well plate. The serum-free medium containing the synthesized peptide in <Example 3> and 0.3% agar was incubated with the cells. One week after treatment, the generated colony was visualized with 0.5 mg/ml NBT (Nitro blue tetrazolium chloride) and the colonies over 1 mm in diameter were counted.

A further test has as its system MCF 7. Put plainly: Apoptosis by FACS analysis in MCF7 cells. In kind it is cell-based. As to conditions: synthesized peptides, FIG. 7D. The text has this: FIG. 7D is a graph showing the apoptotic effect by synthesized zinc finger domain peptides of FOG2 in MCF7 cells according to FACS analysis;
Test [3] has as its system MDA MB 231 cells. Put plainly: Cell migration, modified Boyden chamber method. In kind it is cell-based. Conditions: 4 μM peptide, 2 days of treatment, 18 hr migration, FIG. 3B. The protocol:
MDA MB 231 cells were transfected with pCK-flag (control), FOG2-wt (wild type) and FOG2 mutants having modified zinc finger domain (FOG2-ZF-5-m and FOG2-ZF-6-m). The cell migration was then analyzed using the modified Boyden chamber method (Albini A et al., Cancer Res 1987 47:3239-45). Following the transfection for 24 hr, MDA MB 231 cells (1×10^5) were suspended in a serum-free medium and seeded in triplicate in the upper part of BD chamber ([…] pore size). The lower part was filled with the serum-free medium. Following the incubation at 37° C. for 18 hr, non-migrating cells positioned at the upper surface of filters were cleaned with a cotton swab. The migrating cells passing through the lower surface of filters were fixed with 70% ethanol and treated with the Giemsa staining solution for 50 min. Then, the cells were rinsed with water and observed under a microscope. The cell migration rate was determined by counting the number of cells present in randomly-selected six sections and the migration range was expressed as the average number of cells per a microscopic field.
MDA MB 231 cells were incubated with 4 μM Mock (control, DMSO), 4 μM ZF-5-wt-24, 4 μM ZF-5-m-24, 4 μM ZF-5-wt-20 or 4 μM ZF-3-wt-21. After treatment, the cell migration was analyzed using the modified Boyden chamber method (Albini A et al., Cancer Res 1987 47:3239-45). After 2 days of treatment, MDA MB 231 cells (1×10^5) were suspended in the serum free medium and seeded in triplicate in the upper part of BD chamber ([…] pore size). The lower part was filled with the serum free medium. Following the incubation at 37° C. for 18 hr, non-migrating cells positioned at the upper surface of filters were cleaned with the cotton swab. The migrating cells passing through the lower side surface of filters were fixed with 70% ethanol and stained using the Giemsa stain method. The cell migration rate was determined by counting the number of cells present in randomly-selected six sections and the migration range was expressed as the average number of cells per a microscopic field.

In test [4] the target is T1, PI3K (Homo sapiens, UniProt P27986). In words: PI3K activity in MDA MB 231 cells incubated with zinc finger domain peptides. The test is classed as cell-based. More on the design: The cell lysates were immunoprecipitated with p85α (sc-1637, Santa Cruz) and Protein G-Sepharose beads; endogenous in cells. As to conditions: synthesized peptides, FIG. 5. On the procedure:
(§1) For measurement of PI3K activity, 10 μl of sonicated PIP2 (1 μg/μl, Calbiochem), 10 μl of 100 mM MgCl2 and 1 μl of [-^32P]ATP (500 μCi/ml) were added to the kinase buffer (10 mM Tris-HCl (pH 7.4), 150 mM NaCl, 1 mM Na3VO4, 10 mM ZnCl2) and incubated at 37° C. for 30 min. After incubation, 20 μl of 6 N HCl was added to stop the reaction and PIP2 was extracted by treatment with 200 μl of methanol:chloroform (1:1) solution. The amount of radioactively labeled PIP2 in the extract was measured using a scintillator counter.
For peptide treatment, cells were trypsinized to detach them from a culture dish and their aliquot (2×10^5 cells) was incubated with 4 μM peptides in 100 mm dishes. The control was incubated with Mock (DMSO).

Test [5] has as its target T1, PI3K. In words: In vitro competition analysis (PI3K immunoprecipitated from 293T cell lysates with p85α antibody plus peptides). The test is classed as biochemical. Further details: The cell lysates were immunoprecipitated with p85α (sc-1637, Santa Cruz) and Protein G-Sepharose beads; endogenous in cells. As to conditions: peptides 1 μM, 5 μM and 10 μM, dose-dependent, compared with ZF-3-wt-21, FIG. 2B. On the procedure:
The in vitro competition analysis was performed by PI3K immunoprecipitation in 293T cells. The activated PI3K was extracted from the 293T cell lysates by immunoprecipitating with p85α antibody simultaneously with addition of the synthesized peptides (1 μM, 5 μM and 10 μM). The PI3K activation was induced as described above.

Test [6] deals with T1, PI3K. Put plainly: IGF-1-induced PI3K activation in Hep3B cells incubated with peptides. More on the design: The cell lysates were immunoprecipitated with p85α (sc-1637, Santa Cruz) and Protein G-Sepharose beads; endogenous in cells; host or cells: Hep3B. The test is classed as cell-based. As to conditions: 4 μM peptides, 48 hr, FIG. 2C. On the procedure: as §1
In addition, Hep3B liver cancer cells were incubated with 4 μM peptides for 48 hr and the PI3K activity was analyzed.

T1 sequence (P27986 whole entry, the tested form may be a part): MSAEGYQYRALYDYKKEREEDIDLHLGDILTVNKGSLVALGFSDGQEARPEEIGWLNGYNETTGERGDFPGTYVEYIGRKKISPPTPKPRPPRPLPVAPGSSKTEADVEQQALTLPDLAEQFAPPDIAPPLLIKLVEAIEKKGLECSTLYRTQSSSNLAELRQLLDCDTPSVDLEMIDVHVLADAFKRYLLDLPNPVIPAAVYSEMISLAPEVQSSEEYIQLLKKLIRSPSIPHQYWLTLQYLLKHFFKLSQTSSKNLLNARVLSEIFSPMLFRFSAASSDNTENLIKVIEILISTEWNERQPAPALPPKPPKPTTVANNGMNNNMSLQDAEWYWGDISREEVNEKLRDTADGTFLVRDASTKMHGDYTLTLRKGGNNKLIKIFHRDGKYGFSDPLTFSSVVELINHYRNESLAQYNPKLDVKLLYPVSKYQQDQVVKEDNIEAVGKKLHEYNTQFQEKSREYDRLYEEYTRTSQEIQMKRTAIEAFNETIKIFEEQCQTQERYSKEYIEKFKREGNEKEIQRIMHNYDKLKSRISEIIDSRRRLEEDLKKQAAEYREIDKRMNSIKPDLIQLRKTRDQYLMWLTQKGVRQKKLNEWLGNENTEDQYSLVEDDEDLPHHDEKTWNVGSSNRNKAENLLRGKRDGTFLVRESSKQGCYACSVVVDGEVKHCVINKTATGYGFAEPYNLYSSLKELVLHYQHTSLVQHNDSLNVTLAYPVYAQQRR

Take “ZF-5-wt-24: The peptide comprising a portion of the fifth zinc finger domain of FOG2 (24 amino acids); residues 547-570 (GATCFECNITFNNLDNYLVHKKHY)”: in the test on Akt, the “Akt phosphorylation induced by IGF-1 stimulation” value is recorded as “reduced”. Also, the apoptosis entry in the test on MDA MB 231 cells [1] and in the test on MCF 7 was “promoted apoptosis” in each case. For the same substance, in the test on MDA MB 231 cells [2] (4 μM peptide for 3 days), the “reduction of cell proliferation” value was “about 40%”. Further, the “inhibitory effect on cell proliferation” value with MDA MB 231 cells [2] (synthesized peptide, increasing concentration, FIG. 6B) was “reduces the cancer cell proliferation; also recorded: became more prominent as ZF-5-wt-24 concentration increased”. For the same substance, the “number of colonies / colony formation” value in the test on HCT116 cells is listed as “reduces the colony formation; also recorded: reduced”. Moreover, the “reduction of cell migration” value in the test with MDA MB 231 cells [3] is given as “reduce the cell migration”. Also, in the test with PI3K [4], the PI3K activity result was “decrease PI3K activity”. For the same substance, the “reduction of PI3K activity” value in the test with PI3K [5] is “about 40%”. Besides, the “IGF-1-induced PI3K activation” value with PI3K [6] is reported as “inhibited”.
